Measured values from US20250129385A1, “GENE-EDITING METHODS FOR EMBRYONIC STEM CELLS” (ABS Global, Inc., priority 2022, published 2025).

Legend:
Format in all cases: cell-based
[1] = tested on: ROSA safe harbor locus; experiment: CRISPR-Cas9 RNP gene editing of bovine ESC, indels by Sanger sequencing/TIDE, ROSA locus; conditions: gbESC_H2682 cells; RNP 20 pmol SpCas9 + 60 pmol sgRNA, program CM138; DNA after four days; TIDE
Description: (§1) Test edits were performed in the ROSA and CD18 loci. CRISPR guides targeting the CD18 (ITGB2) gene at chr1:144,776,517, or the ROSA safe harbor locus region chr22:17,210,883-17,210,982, (genome assembly ARS-UCD1.2/bosTau9) were designed and synthesized as sgRNA molecules (IDT, Coralville IA) as shown in Table 2.
(§2) Ribonucleoprotein complexes formed from 20 pmol SpCas9 (IDT, Coralville IA) and 60 pmol sgRNA were electroporated into gbESC_H2682 cells using P3 nucleofection solution and the Amaxa 4D program CM138. After four days DNA from the cells was harvested using QUICKEXTRACT™ reagent (Lucigen, Middleton WI), and PCR was performed using the primers in Table 3.

[2] = tested on: CD18 (ITGB2) gene; experiment: CRISPR-Cas9 RNP gene editing of bovine ESC, indels by Sanger sequencing/TIDE, CD18 locus; conditions: gbESC_H2682 cells; RNP 20 pmol SpCas9 + 60 pmol sgRNA, program CM138; DNA after four days; TIDE
Description: as §1, §2

[3] = tested on: Porcine stem cell line C2; experiment: Single passage cell growth in media #2 with additives (CELLTITER-GLO 2.0); conditions: simple defined media #2 plus additive, day five; for Cell Growth (% of simple media): line C2 passaged 1:80, laminin 521, changed daily
Description: A revised simple defined media #2 (Table 6, with lower ascorbic acid and FGF2) was used to determine any immediate benefit of certain additives over the timeframe of one passage.
Porcine stem cell line C2 (see Example 2) growing in the standard TI media conditions was passaged at a 1:80 ratio into a laminin 521 coated 24 well plate containing simple defined media #2 alone or with the addition of 1% bovine serum albumin, 1% Albumax, 1 mg/mL polyvinyl acetate, 1:500 chemically defined lipids (Gibco), 1:500 lipid mixture solution (Peprotech), 1:1000 Trace Elements B or C (Corning), sodium bicarbonate, and double the amount of ITS (insulin/transferrin/selenium). Cells were incubated at 38.5° C./5% 02 and media and additives were changed daily. On day five cell growth was measured using the CELLTITER-GLO® 2.0 kit (Promega, Madison WI).

[4] = tested on: seventh exon of CD163; experiment: CRISPR-CAS9 editing of porcine ESC, single-cell clones screened by PCR genotyping; conditions: two guides together, C9 line; RNP 20 pmol SpCas9 + 60 pmol sgRNA, pulse DS137; colonies screened at day 21
Description: As proof of concept, the present inventors sought to create the CD163 edit disclosed in U.S. Pat. No. 11,535,850. Two guides, ctggcttact cctatcatga agg (SEQ ID NO: 103) and tcccatgcca tgaagagggt agg (SEQ ID NO: 104) were used to excise the seventh exon of CD163. These guides were electroporated into the C9 line by mixing cells in P3 nucleofection solution with ribonucleoprotein (20 pmol SpCas9 complexed with 60 pmol of the guide sgRNA) and using the pulse condition DS137 in a 4D-Nucleofector system (Lonza, Walkersville MD). Between day 7 and 12 post-electroporation, single cells were deposited one per well into a 96 well plate (coated with laminin 521 and containing TI media with Y27632) using a Hana Single Cell Dispenser instrument (Namocell, San Jose CA). Cells were allowed to grow until day 21, and then colonies were screened by PCR genotyping (see 11,535,850).

748: sgRNA, guide sequence TGTCGAGTCTCGATTATGGG, targeting bovine ROSA safe harbor locus (listed as DNA, chemistry not given here; listed as Bos taurus) [compound 748]
Efficiency (%) (editing frequency) [1]: 74.3%

749: sgRNA, guide sequence ATAATCGAGACTCGACATGG, targeting bovine ROSA safe harbor locus (listed as DNA, chemistry not given here; listed as Bos taurus) [compound 749]
Efficiency (%) (editing frequency) [1]: 66.5%

750: sgRNA, guide sequence AGGCGATGACGAGATCGCGG, targeting bovine ROSA safe harbor locus (listed as DNA, chemistry not given here; listed as Bos taurus) [compound 750]
Efficiency (%) (editing frequency) [1]: 58.2%

754: sgRNA, guide sequence CCCCGTGGGACTCACCGGAC, targeting bovine CD18 (ITGB2) gene (listed as DNA, chemistry not given here; listed as Bos taurus) [compound 754]
Efficiency (%) (editing frequency) [2]: 34.9%

O=C([O-])O.[Na+] [Sodium bicarbonate]
Cell Growth (% of simple media) [3]: 75%

+ 1% BSA (Gibco A10008-01): 1% bovine serum albumin added to simple defined media #2
effect on cell growth in words ([3]; line C2): beneficial to cell growth
Cell Growth (% of simple media) [3]: 187%

SEQ ID NO: 103: guide ctggcttact cctatcatga agg used to excise the seventh exon of CD163 (guide CTGGCTTACTCCTATCATGAAGG; listed as DNA, chemistry not given here; listed as Sus scrofa)
clones homozygous for the CD163 edit [4]: Two clones that were homozygous for the edit were found

SEQ ID NO: 104: guide tcccatgcca tgaagagggt agg used to excise the seventh exon of CD163 (guide TCCCATGCCATGAAGAGGGTAGG; listed as DNA, chemistry not given here; listed as Sus scrofa)
clones homozygous for the CD163 edit [4]: Two clones that were homozygous for the edit were found
